Common to all, as to set-up: species or system rat
For experiment [1], the system named is Male Wistar rats. Description: In vivo LTP in hippocampal CA1 (field EPSP slope), strong HFS protocol, icv injection. The text has this: (§1) Male Wistar rats weighing 220-280 g were anaesthetised with urethane (ethyl carbamate, 1.8 g/kg, i.p.) for the duration of all experiments. The animals had been obtained from Harlan, United Kingdom (UK).
(§2) A cannula (22 gauge, 0.7 mm outer diameter, 11 mm in length, Bilaney, Kent, UK) was implanted (1.5 mm anterior to bregma, 0.5 mm lateral to the midline and 3.55 mm ventral) into the left hemisphere for intracerebroventricular (icv) injections. Electrodes (tungsten with Teflon coating, Bilaney, Kent, UK) were implanted unilaterally 3.4 mm posterior and 2.5 mm lateral to the midline, and the stimulating electrode 4.2 mm posterior to bregma and 3.8 mm lateral to the midline. […] Recordings of EPSPs were made from the stratum radiatum in the CA1 region of the right hippocampal hemisphere in response to stimulation of the Schaffer collateral/commissural pathway.
(§3) Field EPSPs were recorded on a computerised stimulating and recording unit (PowerLab, ADI instruments, UK) in which the trigger threshold was adjustable. The triggered unit activated a constant current stimulus isolation unit (Neurolog, UK). The data acquisition system was triggered simultaneously to record all events. Sampling speed was at 20 kHz recording of EPSPs.
(§4) The ‘strong’ high frequency stimulation (HFS) protocol for inducing LTP consisted of 3 trains of 200 stimuli, inter-stimulus interval 5 ms (200 Hz), inter-train interval 2 sec. […] The ‘weak’ HFS protocol for inducing LTP consisted of 10 trains of 10 stimuli, inter-stimulus interval 5 ms (200 Hz). The strong HFS was used to test the effects of peptides that impair LTP (beta-amyloid), and the weak HFS was used to test peptides that facilitate LTP. In this form of LTP, the control group is not potentiated at a maximal rate, and LTP can decay slowly over time.
(§5) Stimulation intensity was 70% of the maximum EPSP. LTP was measured as a % of baseline EPSP slope recorded over a 30 min period prior to drug injection and 60 min prior to application of HFS. Baseline was recorded for 30 min and averaged. This value was taken as 100% of the EPSP slope and all recoded values were normalised to this baseline value.
Beta-amyloid(25-35) and other peptides used in this study were synthetised on an Applied Biosystems automated peptides synthesiser (Model 432A) using standard solid-phase Fmoc protocols. […]
(§6) Each group consisted of 6 animals. Data were analysed using a repeated measures two-way ANOVA, or a repeated measures three level two-way ANOVA with post-hoc tests to discriminate between groups (PRISM, GraphPad software Inc, USA).

Experiment [2] relates to Male Wistar rats. The experiment is described as follows: In vivo prevention of beta-amyloid(25-35)-induced impairment of LTP in hippocampal CA1. To be noted: n=6, FIG. 5.
Excerpt: as §1
A cannula (22 gauge, 0.7 mm outer diameter, 11 mm in length, Bilaney, Kent, UK) was implanted (1.5 mm anterior to bregma, 0.5 mm lateral to the midline and 3.55 mm ventral) into the left hemisphere for intracerebroventricular (icv) injections. Electrodes (tungsten with Teflon coating, Bilaney, Kent, UK) were implanted unilaterally 3.4 mm posterior and 2.5 mm lateral to the midline, and the stimulating electrode 4.2 mm posterior to bregma and 3.8 mm lateral to the midline. […]
Field EPSPs were recorded on a computerised stimulating and recording unit (PowerLab, ADI instruments, UK) in which the trigger threshold was adjustable. […]
Stimulation intensity was 70% of the maximum EPSP. LTP was measured as a % of baseline EPSP slope recorded over a 30 min period prior to drug injection and 60 min prior to application of HFS. Baseline was recorded for 30 min and averaged. […]
Each group consisted of 6 animals. Data were analysed using a repeated measures two-way ANOVA, or a repeated measures three level two-way ANOVA with post-hoc tests to discriminate between groups (PRISM, GraphPad software Inc, USA). […]

Experiment [3] concerns Male Wistar rats. Description: In vivo LTP in hippocampal CA1 (field EPSP slope), weak HFS protocol, icv injection. To be noted: 15 nmol icv, LTP induced 30 min post-injection, n=6.
Excerpt: as §1, §2, §3, §4, §5
Beta-amyloid(25-35) and other peptides used in this study were synthetised on an Applied Biosystems automated peptides synthesiser (Model 432A) using standard solid-phase Fmoc protocols. Peptides were judged pure by reversed phase HPLC on a Waters Millennium 2010 chromatography system, and peptides were subsequently characterised using matrix-assisted laser desorption/ionisation time of flight (MALDI-TOF) mass spectrometry as described previously (Gengler et al., 2006; Hölscher et al., 2007). Peptides were stored in dry form and dissolved in double distilled water before the experiments. 5 μl of peptide solution was injected icv.
as §6

Setting [4] is: 15 nmol icv, LTP induced 30 min post-injection, n=6.

Non-standard residues stand in square brackets, D forms with d. No end group written: not given here. *: point of attachment. mPEG = mini-PEG HO—(CH2—O—CH2)n—H, n about 3; Myristoyl = CCCCCCCCCCCCCC(=O)*

Regarding “βA(25-35): beta-amyloid fragment 25-35, synthesised peptide used to impair LTP (GSNKGAIIGLM; Amyloid-beta protein 42; UniProt P05067 696-706, looked up, fragment) [reference compound]”, the “effect on long-term potentiation (LTP; change in EPSP) compared with control” value in the experiment on Male Wistar rats [1] (10 nmol icv, LTP induced 15 min post-injection, p<0.01, n=6, FIG. 2) was “impaired long-term potentiation (LTP) compared with control”; in the experiment with Male Wistar rats [1] (100 nmol icv, LTP induced 15 min post-injection, p<0.005, n=6, FIG. 2), “LTP development was also impaired”. Besides, the “effect on LTP compared with control (Example 5 experiment)” value in the experiment on Male Wistar rats [2] (100 nmol icv alone, LTP induced 15 min post-injection, p<0.001) was “difference between the βA(25-35) group and control”.
Turning to “Ala(1)GIP: human GIP(1-42) in which Tyr at position 1 has been replaced with L-Ala (AAEGTFISDYSIAMDKIHQQDFVNWLLAQKGKKNDWKHNITQ; Synthetic analogue derived from human GIP(1-42))”, the “effect on long-term potentiation (LTP; change in EPSP) compared with control” value in the experiment on Male Wistar rats [1] (setting [4]) is reported as “attenuated long-term potentiation (LTP) compared with control”.
As for “D-Ala(2)GIP: human GIP(1-42) in which L-Ala at position 2 has been replaced with D-Ala (Y[dA]EGTFISDYSIAMDKIHQQDFVNWLLAQKGKKNDWKHNITQ)”, in the experiment with Male Wistar rats [3], the “effect on long-term potentiation (LTP; change in EPSP) compared with control” value is “enhanced long-term potentiation (LTP) compared with control”.
Consider “Pro(3)GIP: human GIP(1-42) in which Glu at position 3 has been replaced with L-Pro (YAPGTFISDYSIAMDKIHQQDFVNWLLAQKGKKNDWKHNITQ; Synthetic analogue derived from human GIP(1-42))”, for which the “effect on long-term potentiation (LTP; change in EPSP) compared with control” value with Male Wistar rats [1] (setting [4]) was “attenuated long-term potentiation (LTP) compared with control”.
Take “GIP[Lys(37)Myristic acid]: GIP analogue created by Myristic acid addition at an epsilon amino group of Lys(37) (YAEGTFISDYSIAMDKIHQQDFVNWLLAQKGKKNDWK(Myristoyl)HNITQ; UniProt P09681 52-93, looked up)”: the “effect on long-term potentiation (LTP; change in EPSP) compared with control” value in the experiment with Male Wistar rats [3] is given as “enhanced long-term potentiation (LTP) compared with control”.
As for “GIP[mPEG]: C-terminal mini-PEGylated human GIP(1-42), polymer moiety HO—(CH2—O—CH2)n—H, n about 3 (YAEGTFISDYSIAMDKIHQQDFVNWLLAQKGKKNDWKHNITQ-mPEG; UniProt P09681 52-93, looked up)”, the “effect on long-term potentiation (LTP; change in EPSP) compared with control” value with Male Wistar rats [3] was “enhanced long-term potentiation (LTP) compared with control”.
Consider “N-AcGIP: N-terminally acetylated human GIP(1-42)”, for which the “effect on long-term potentiation (LTP; change in EPSP) compared with control” value in the experiment on Male Wistar rats [3] was “enhanced long-term potentiation (LTP) compared with control”. Further, the “effect on βA(25-35)-induced impairment of LTP” value in the experiment on Male Wistar rats [2] (15 nmol icv, 100 nmol βA(25-35) injected 30 min later, LTP induced 15 min post-βA injection, p<0.001 vs βA group) is “attenuated the βA(25-35)-induced impairment of LTP”.
Take “GIP: Human gastric inhibitory polypeptide, full length 42 amino acid peptide, SEQ ID NO: 1 (YAEGTFISDYSIAMDKIHQQDFVNWLLAQKGKKNDWKHNITQ; listed as Homo sapiens)”: the “effect on long-term potentiation (LTP; change in EPSP) compared with control” value in the experiment with Male Wistar rats [3] is “increased long-term potentiation (LTP) compared with control”.

Source of the values: US9062125B2, “Use of GIP for the treatment of disorders associated with dysfunctional synaptic transmission” (Innovation Ulster Limited, priority 2007, dated 2015).
